Format in all cases: cell-based, human
In experiment [1] the test system is AsPC-1 (K-Ras G12D). Description: CellTiter-Glo cell viability assay, AsPC-1. Conditions: Homo sapiens, ASPC1, 120 h, read-out: AsPC-1 Cell Viability IC50. The procedure: (§1) Note—The following protocol describes a procedure for monitoring cell viability of K-Ras mutant cancer cell lines in response to a compound of the invention. Other RAS isoforms may be employed, though the number of cells to be seeded will vary based on cell line used.
(§2) Test compounds (132.5 nL) were directly dispensed into the assay plates containing cells. […] On day 5, assay plates and their contents were equilibrated to room temperature for approximately 30 minutes. […] Luminescence was measured using the PerkinElmer Enspire. Data were normalized by the following: (Sample signal/Avg. DMSO)*100. The data were fit using a four-parameter logistic fit.
In general terms: Cellular ATP, detected with luciferase, serves as a proxy for viable cell number.

Experiment [2] deals with AsPC-1 (K-Ras G12D). Description: Potency assay: pERK. As to conditions: Homo sapiens, ASPC1, read-out: pERK EC50. In a few lines:
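pERK decrease measured after 4 h compound treatment at 37 °C (10 three-fold dilutions, duplicate wells), by either fixed-cell In-Cell Western with DRAQ5 counterstain or AlphaLISA on lysates. Signal fitted against log concentration with a four-parameter model to give IC50.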

Experiment [3] has as its system NCI-H358 (K-Ras G12C). Put plainly: CellTiter-Glo cell viability assay, H358. Conditions: Homo sapiens, NCI-H358, 120 h, read-out: H358 Cell Viability IC50, K-Ras G12C, 5-day treatment. The protocol:
as §1, §2

The term IC50 denotes the concentration needed to halve the response being measured. The EC50 is the concentration needed to bring the measured effect to its halfway point.

Turning to `CCn1c(-c2cnccc2COC)c2c3cc(ccc31)-c1cc(O)cc(c1)C[C@H](NC(=O)[C@H](C(C)C)N(C)C(=O)CN(C)C(=O)[C@H]1CN1)C(=O)N1CCC[C@H](N1)C(=O)OCC(C)(C)C2` [Example 7, (2R)—N-(2-(((2S)-1-(((6^3S,4S)-1^1-ethyl-25-hydroxy-1^2-(4-(methoxymethyl)pyridin-3-yl)-10,10-dimethyl-5,7-dioxo-6^1,6^2,6^3,6^4,6^5,6^6-hexahydro-1^1H-8-oxa-1 (5,3)-indola-6 (1,3)-pyridazina-2 (1,3)-benzenacycloundecaphane-4-yl)amino)-3-methyl-1-oxobutan-2-yl) (methyl)amino)-2-oxoethyl)-N-methylaziridine-2-carboxamide], the IC50 lay within 100 to 1000 nM in experiment [1] and 10 to 100 nM in experiment [3]. In experiment [2], the EC50 is under 5000 nM.

As for `CCn1c(-c2cnccc2COC)c2c3cc(ccc31)-c1cc(O)cc(c1)C[C@H](NC(=O)[C@H](C(C)C)N(C)C(=O)CN(C)C(=O)[C@H]1CN1Cc1ccccc1)C(=O)N1CCC[C@H](N1)C(=O)OCC(C)(C)C2` (some centres unmarked) [Example 9], the values for the IC50 in experiment [1] and in experiment [3] were 1000 to 10000 nM and 10 to 100 nM, respectively. Further, in experiment [2], the EC50 is under 5000 nM.

For `CCn1c(-c2cnccc2COC)c2c3cc(ccc31)-c1cc(O)cc(c1)C[C@H](NC(=O)[C@H](C(C)C)N(C)C(=O)CN(C)C(=O)[C@@H]1CN1Cc1ccccc1)C(=O)N1CCC[C@H](N1)C(=O)OCC(C)(C)C2` (some centres unmarked) [Example 10], the IC50 in experiment [1] was in the range of 1000 to 10000 nM; in experiment [3], 10 to 100 nM. In experiment [2], the EC50 is under 5000 nM.

As to `CCn1c(-c2cnccc2COC)c2c3cc(ccc31)-c1cc(O)cc(c1)C[C@H](NC(=O)[C@H](C(C)C)N(C)C(=O)CN(C)C(=O)C1CN1)C(=O)N1CCC[C@H](N1)C(=O)OCC(C)(C)C2` (some centres unmarked) [Example 33], the EC50 in experiment [2] was under 5000 nM. Besides, the IC50 in experiment [3] lay in the range of 10 to 100 nM.

As to `CCn1c(-c2cnccc2COC)c2c3cc(ccc31)-c1cc(O)cc(c1)C[C@H](NC(=O)[C@H](C(C)C)N(C)C(=O)CN(C)C(=O)[C@@H]1N[C@@H]1C(=O)OC)C(=O)N1CCC[C@H](N1)C(=O)OCC(C)(C)C2` [Example 49, methyl (2S,3R)-3-((2-(((2S)-1-(((6^3S,4S)-1^1-ethyl-25-hydroxy-1^2-(4-(methoxymethyl)pyridin-3-yl)-10,10-dimethyl-5,7-dioxo-6^1,6^2,6^3,6^4,6^5,6^6-hexahydro-1^1H-8-oxa-1 (5,3)-indola-6 (1,3)-pyridazina-2 (1,3)-benzenacycloundecaphane-4-yl)amino)-3-methyl-1-oxobutan-2-yl) (methyl)amino)-2-oxoethyl) (methyl)carbamoyl) aziridine-2-carboxylate], the half-inhibitory concentration (IC50) in experiment [1] and in experiment [3] was 1000 to 10000 nM throughout. For the same compound, the EC50 in experiment [2] was under 5000 nM.

Regarding `CCn1c(-c2cccnc2[C@H](C)OC)c2c3cc(ccc31)-c1cc(O)cc(c1)C[C@H](NC(=O)[C@H](C(C)C)N(C)C(=O)CN(C)C(=O)[C@@H]1N[C@H]1COC)C(=O)N1CCC[C@H](N1)C(=O)OCC(C)(C)C2` [Example 85], the IC50 in experiment [1] was in the range of 1000 to 10000 nM; in experiment [3], 10 to 100 nM. Moreover, the EC50 in experiment [2] was under 5000 nM.

With `CCn1c(-c2cccnc2[C@H](C)OC)c2c3cc(ccc31)-c1cc(O)cc(c1)C[C@H](NC(=O)[C@H](C(C)C)N(C)C(=O)CN(C)C(=O)C1CN1CCOC)C(=O)N1CCC[C@H](N1)C(=O)OCC(C)(C)C2` (some centres unmarked) [Example 90], the values for the IC50 in experiment [1] and in experiment [3] were 100 to 1000 nM and under 10 nM, respectively. Further, the EC50 in experiment [2] is under 5000 nM.

Turning to `CCn1c(-c2cccnc2[C@H](C)OC)c2c3cc(ccc31)-c1cc(O)cc(c1)C[C@H](NC(=O)[C@H](C1CCCC1)N(C)C(=O)CN(C)C(=O)[C@H]1CN1)C(=O)N1CCC[C@H](N1)C(=O)OCC(C)(C)C2` [Example 95, (2R)—N-(2-(((1S)-1-cyclopentyl-2-(((6^3S,4S)-1^1-ethyl-25-hydroxy-1^2-(2-((S)-1-methoxyethyl)pyridin-3-yl)-10,10-dimethyl-5,7-dioxo-61,62,63,64,65,66-hexahydro-1^1H-8-oxa-1 (5,3)-indola-6 (1,3)-pyridazina-2 (1,3)-benzenacycloundecaphane-4-yl)amino)-2-oxoethyl) (methyl)amino)-2-oxoethyl)-N-methylaziridine-2-carboxamide], the IC50 in experiment [1] is 10 to 100 nM; in experiment [3], under 10 nM. The EC50 in experiment [2] is under 5000 nM.

As for `CCn1c(-c2cccnc2[C@H](C)OC)c2c3cc(ccc31)-c1cc(O)cc(c1)C[C@H](NC(=O)[C@H](C(C)C)N(C)C(=O)[C@H](C)N(C)C(=O)[C@H]1CN1)C(=O)N1CCC[C@H](N1)C(=O)OCC(C)(C)C2` [Example 102], the IC50 was in the range of 100 to 1000 nM in experiment [1] and 10 to 100 nM in experiment [3]. Moreover, in experiment [2], the concentration giving a half-maximal response (EC50) was under 5000 nM.

Take `CCn1c(-c2cccnc2[C@H](C)OC)c2c3cc(ccc31)-c1cccc(c1)C[C@H](NC(=O)[C@H](C(C)C)N(C)C(=O)CN(C)C(=O)[C@H]1CN1)C(=O)N1CCC[C@H](N1)C(=O)OCC(C)(C)C2` [Example 107]: the IC50 is 1000 to 10000 nM in experiment [1] and 100 to 1000 nM in experiment [3]. The EC50 in experiment [2] was under 5000 nM.

For the compound `CCn1c(-c2cccnc2[C@H](C)OC)c2c3cc(ccc31)-c1cc(O)cc(c1)C[C@H](NC(=O)[C@H](C(C)C)N(C)C(=O)CN(C)C(=O)[C@@H]1N[C@@H]1C1CC1)C(=O)N1CCC[C@H](N1)C(=O)OCC(C)(C)C2` [Example 133, (2R,3R)-3-cyclopropyl-N-(2-(((2S)-1-(((6^3S,4S)-1^1-ethyl-25-hydroxy-1^2-(2-((S)-1-methoxyethyl)pyridin-3-yl)-10,10-dimethyl-5,7-dioxo-61,62,63,64,65,66-hexahydro-1^1H-8-oxa-1 (5,3)-indola-6 (1,3)-pyridazina-2 (1,3)-benzenacycloundecaphane-4-yl)amino)-3-methyl-1-oxobutan-2-yl) (methyl)amino)-2-oxoethyl)-N-methylaziridine-2-carboxamide], the IC50 in experiment [1] and in experiment [3] was 10 to 100 nM throughout. For the same compound, the EC50 in experiment [2] was under 5000 nM.

As for `CCn1c(-c2cccnc2[C@H](C)OC)c2c3cc(ccc31)-c1cc(O)cc(c1)C[C@H](NC(=O)[C@H](C(C)C)N(C)C(=O)CN(C)C(=O)[C@@H]1CN1CCO)C(=O)N1CCC[C@H](N1)C(=O)OCC(C)(C)C2` (some centres unmarked) [Example 162], the IC50 in experiment [1] was 1000 to 10000 nM. Moreover, the EC50 in experiment [2] was under 5000 nM.

For `CCn1c(-c2cccnc2[C@H](C)OC)c2c3cc(ccc31)-c1cc(O)cc(c1)C[C@H](NC(=O)[C@H](C(C)C)N(C)C(=O)CN(C)C(=O)[C@H]1CN1CCCN1CCCC1=O)C(=O)N1CCC[C@H](N1)C(=O)OCC(C)(C)C2` (stereo partly drawn) [Example 268, (2R)—N-(2-(((2S)-1-(((6^3S,4S)-1^1-ethyl-25-hydroxy-1^2-(2-((S)-1-methoxyethyl)pyridin-3-yl)-10,10-dimethyl-5,7-dioxo-6^1,6^2,6^3,6^4,6^5,6^6-hexahydro-1^1H-8-oxa-1 (5,3)-indola-6 (1,3)-pyridazina-2 (1,3)-benzenacycloundecaphane-4-yl)amino)-3-methyl-1-oxobutan-2-yl) (methyl)amino)-2-oxoethyl)-N-methyl-1-(3-(2-oxopyrrolidin-1-yl)propyl) aziridine-2-carboxamide], the IC50 in experiment [1] was 1000 to 10000 nM. Besides, the EC50 in experiment [2] was under 5000 nM.

As for `CCn1c(-c2cccnc2[C@H](C)OC)c2c3cc(ccc31)-c1cc(O)cc(c1)C[C@H](NC(=O)[C@H](C(C)C)N(C)C(=O)CN(C)C(=O)[C@@H]1CN1CC(=O)N(C)C)C(=O)N1CCC[C@H](N1)C(=O)OCC(C)(C)C2` (some centres unmarked) [Example 271], the IC50 in experiment [1] was over 10000 nM. The EC50 in experiment [2] is under 5000 nM.

`CCn1c(-c2cccnc2[C@H](C)OC)c2c3cc(ccc31)-c1cc(O)cc(c1)C[C@H](NC(=O)[C@H](C(C)C)N(C)C(=O)CN(C)C(=O)[C@H]1CN1CCCN1CCOC1=O)C(=O)N1CCC[C@H](N1)C(=O)OCC(C)(C)C2` (some centres unmarked) [Example 272]: in experiment [1], the IC50 was 1000 to 10000 nM. In experiment [2], the EC50 was under 5000 nM.

For `CCn1c(-c2cccnc2[C@H](C)OC)c2c3cc(ccc31)-c1cc(O)cc(c1)C[C@H](NC(=O)[C@H](C(C)C)N(C)C(=O)CN(C)C(=O)[C@H]1CN1C1COC1)C(=O)N1CCC[C@H](N1)C(=O)OCC(C)(C)C2` (some centres unmarked) [Example 275], the IC50 in experiment [1] fell in the range of 1000 to 10000 nM. Moreover, the 50% effective concentration (EC50) in experiment [2] is under 5000 nM.

Turning to `CCn1c(-c2cccnc2[C@H](C)OC)c2c3cc(ccc31)-c1cc(O)cc(c1)C[C@H](NC(=O)[C@H](C(C)C)N(C)C(=O)CN(C)C(=O)[C@@H]1CN1CC1COC1)C(=O)N1CCC[C@H](N1)C(=O)OCC(C)(C)C2` (some centres unmarked) [Example 278], the IC50 in experiment [1] fell in the range of 1000 to 10000 nM. In experiment [2], the EC50 is under 5000 nM.

As for `CCn1c(-c2cccnc2[C@H](C)OC)c2c3cc(ccc31)-c1cc(O)cc(c1)C[C@H](NC(=O)[C@H](C(C)C)N(C)C(=O)CN(C)C(=O)[C@@H]1N[C@@H]1C1COC1)C(=O)N1CCC[C@H](N1)C(=O)OCC(C)(C)C2` [Example 281], the IC50 in experiment [1] was in the range of 100 to 1000 nM. The half-maximal effective concentration (EC50) in experiment [2] is under 5000 nM.

On to `CCn1c(-c2cccnc2[C@H](C)OC)c2c3cc(ccc31)-c1cc(O)cc(c1)C[C@H](NC(=O)[C@H](C(C)C)N(C)C(=O)CN(C)C(=O)[C@H]1N[C@H]1C1COC1)C(=O)N1CCC[C@H](N1)C(=O)OCC(C)(C)C2` [Example 282], for which, in experiment [1], the IC50 lay in the range of 1000 to 10000 nM. Moreover, in experiment [2], the EC50 was under 5000 nM.

In the case of `CCn1c(-c2cccnc2[C@H](C)OC)c2c3cc(ccc31)-c1cc(O)cc(c1)C[C@H](NC(=O)[C@H](C(C)C)N(C)C(=O)CN(C)C(=O)[C@H]1N[C@@H]1C1COC1)C(=O)N1CCC[C@H](N1)C(=O)OCC(C)(C)C2` [Example 284], in experiment [1], the IC50 lay in the range of 1000 to 10000 nM. Besides, the concentration for a half-maximal effect (EC50) in experiment [2] is under 5000 nM.
